Experiments:
[1] = molecular target: T1, SPT (Homo sapiens, UniProt O15269+O15270); assay: Serine palmitoyltransferase activity, Assay C ([3H]serine incorporation into lipids, cell homogenates); assay type: biochemical; settings: [3H]serine radioactivity incorporated into lipids, 37° C. 20 min, at the doses indicated
T1 construct: endogenous in cells; host or cells: unnamed cultured cells (Assay B, which Assay C modifies, offers 'CHO cells or a human cell line')
T1 sequence (O15269 1-473): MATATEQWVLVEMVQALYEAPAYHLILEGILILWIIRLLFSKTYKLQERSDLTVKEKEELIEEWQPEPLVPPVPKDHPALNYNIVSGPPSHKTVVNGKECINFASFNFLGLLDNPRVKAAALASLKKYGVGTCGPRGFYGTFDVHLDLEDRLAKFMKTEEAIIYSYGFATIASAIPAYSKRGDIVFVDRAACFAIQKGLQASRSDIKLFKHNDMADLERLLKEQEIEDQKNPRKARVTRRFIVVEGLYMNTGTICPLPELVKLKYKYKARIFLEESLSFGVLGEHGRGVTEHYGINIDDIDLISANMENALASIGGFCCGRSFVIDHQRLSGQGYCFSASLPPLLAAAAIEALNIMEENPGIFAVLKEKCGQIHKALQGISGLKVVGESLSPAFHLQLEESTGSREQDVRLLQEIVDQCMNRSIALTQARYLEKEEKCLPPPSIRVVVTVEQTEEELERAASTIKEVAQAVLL
T1 sequence (O15270 1-562): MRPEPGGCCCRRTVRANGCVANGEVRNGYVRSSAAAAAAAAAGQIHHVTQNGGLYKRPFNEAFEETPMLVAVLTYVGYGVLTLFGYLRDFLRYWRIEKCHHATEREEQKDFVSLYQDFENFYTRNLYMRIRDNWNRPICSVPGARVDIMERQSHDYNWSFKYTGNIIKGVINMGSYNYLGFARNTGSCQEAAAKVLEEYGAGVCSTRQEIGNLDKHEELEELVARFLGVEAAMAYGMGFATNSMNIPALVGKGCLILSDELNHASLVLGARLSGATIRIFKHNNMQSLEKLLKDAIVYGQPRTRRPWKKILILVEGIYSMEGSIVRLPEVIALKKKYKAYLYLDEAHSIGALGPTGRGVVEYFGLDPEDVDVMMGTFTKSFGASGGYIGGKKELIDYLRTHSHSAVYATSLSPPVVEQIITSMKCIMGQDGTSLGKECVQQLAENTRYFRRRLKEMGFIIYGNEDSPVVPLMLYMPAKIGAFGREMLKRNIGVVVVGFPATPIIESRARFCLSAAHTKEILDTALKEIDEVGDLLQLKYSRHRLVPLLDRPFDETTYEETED
T1 sequence (Q969W0 1-71 partner): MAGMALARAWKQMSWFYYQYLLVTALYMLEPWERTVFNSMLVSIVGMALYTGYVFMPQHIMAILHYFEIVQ
Protocol: An alternative assay for evaluating inhibition of SPT, the enzyme present in commonly cultured cells, is performed with CHO cells or a human cell line. Cells are washed three times with ice-cold phosphate-buffered saline (PBS). A total of 0.5 mL of lysis buffer [50 mM Hepes (pH 8.0) containing 5 mM ethylenediaminetetraacetic acid (EDTA) and 5 mM dithiothreitol (DTT)] is added to each dish. The cells are scraped using a rubber policeman, and are then transferred to a test tube on ice. The cell suspension is sonicated three times for 5 s at 1-2 min intervals on ice. Protein concentrations in cell homogenates are measured using a Bradford protein assay kit (Bio-Rad). […] The radioactivity is measured with a LS6000TA liquid scintillation counter (Beckman). Nonspecific conversion of [^3H] serine to chloroform-soluble species is determined by performing the assay in the absence of palmitoyl CoA. […]
An alternative assay using a non-chlorinated solvent modification of the Blye and Dyer lipid extraction method reported in Smedes (Smedes, F. (1999) Analyst 124, 1711-18) is employed to evaluate exemplary compounds. […] An accurately measured portion of the organic layer (4.0 ml) is added to a scintillation vial with 1 ml of water. […] The amount of [^3H] serine radioactivity incorporated into lipids is quantified in a scintillation counter. […]

[2] = tested on: SPT; settings: literature report, immunosuppressive assay for FTY720-like activity; cited from earlier work
[3] = tested on: Rat pancreatic islets; assay: Protection of islets by an SPT inhibitor (fatty acid medium, propidium iodide flow cytometry); assay type: cell-based; settings: 3 days
Protocol: Islet protection by an exemplary compound is evaluated in an assay according to Eitel, K, et al. Biochem. Biophys. Res. Commun. 299: 853-6 (2002), and results obtained in this assay are reported below in Table 4. Rat pancreatic islets are cultured with control medium (RPMI 1640 supplemented with 10% fetal bovine serum, antibiotics and made […]) or in medium supplemented with 1 millimolar sodium palmitate (Fatty Acid Medium) during a period of 3 days. The culture medium is changed after 2 days to an identical composition culture medium with fresh inhibitor in the appropriate wells. Cells are stained with propidium iodide (PI), washed and propidium staining of cells (as a measure of cellular DNA content) is assessed by flow cytometry. The percentage of cells having less than the normal amount of PI staining is considered to be apoptotic cells (Eitel, K, et al. (2002)).

[4] = tested on: diabetic Zucker fatty rat model; settings: inhibition of SPT; cited from earlier work

Row | Compound | inhibition of SPT [1] | activity against SPT [2] | other results
1 | CCCCCCC(=O)CCCCCC/C=C/C[C@@H](O)[C@H](O)[C@@](N)(CO)C(=O)O [ISP-1, myriocin] | potent but non-selective inhibition |  | 
2 | CCCCCCCCc1ccc(CCC(N)(CO)CO)cc1 [FTY720] |  | do not inhibit SPT | 
3 | CCCCCCCCc1ccc(CCC(N)(CO)C(=O)O)cc1 (stereo not shown) [compound 2] |  | did not exhibit activity | 
4 | CCCCCCCOc1ccc(CCC(O)C(O)C(N)(CC(N)=O)C(=O)O)cc1 (stereo not shown) [Compound 12] | moderate activity |  | protection of cells from the fatty acid treatment (apoptotic cells by PI staining) ([3]; 1 millimolar sodium palmitate): fully protect; benefit in comparison to treatment with the control medium ([3]; PI staining): imparts a benefit
5 | N[C@@H]1CON=C1O [cycloserine] |  |  | beta cell protective effect [4]: ≈ 50%

— patent US20080096799A1, “COMPOUNDS FOR AND METHODS OF TREATING INSULIN RESISTANCE AND INFLAMMATION” (FORBES MEDI-TECH (RESEARCH), INC., priority 2006, published 2008)
